Source: patent US9382254B2, “Compounds and pharmaceutical compositions thereof for the treatment of cystic fibrosis” (Galapagos NV, priority 2013, dated 2016)

How the values were obtained:
CFTR G551D mutant = molecular target: T1, CFTR G551D mutant (Homo sapiens, UniProt P13569, G551D); experiment: YFP-halide influx assay for the CFTR-G551D mutation; type: cell-based; conditions: HEK293 cells, forskolin 10.67 μM
T1 construct: expressed in transfected cells; host or cells: HEK293 (reverse transfection with plasmid)
Description: The YFP halide influx assay measures the functionality of the cystic fibrosis Transmembrane Conductance regulator (CFTR) channels. The assay is used to evaluate the capacity of compounds to increase the channel opening of existing mutant CFTR channels in the membrane. It makes use of the observation that the yellow fluorescent protein (YFP) variant YFP H148Q, I152L, […] has its fluorescence substantially quenched by halide ions like Cl^− and I^−. (Galietta, Haggie, & Verkman, 2001)
For this purpose, HEK293-cells are seeded in 96 well plates. During seeding, the cells are reverse-transfected with plasmid vectors that direct the expression of the CFTR G551D mutant and of the YFP reporter. Cells are incubated at 37° C., 5% CO2 for 24 hours so as to allow for sufficient expression of the CFTR protein.
(§1) The I^−-induced quenching of fluorescence is recorded immediately after injection of I^− for 7 seconds. The capacity of a compound to increase the channel opening is directly correlated with the decrease in fluorescence, and is expressed as (1-(fluorescence after 7 seconds (F)/fluorescence before injection (F0))) and an EC50 can be derived from a (1-F/F0) vs compound concentration plot.

CFTR ΔF508 mutant = molecular target: T2, CFTR ΔF508 mutant (Homo sapiens, UniProt P13569, DEL508-508); experiment: YFP-halide influx assay for the CFTR-ΔF508 mutation (384 well, FDSS/μCell); type: cell-based; conditions: CFBE41o- cells, CFTR-ΔF508, 1×D-PBS, fluorescence after 36 seconds
T2 construct: expressed in transfected cells; host or cells: CFBE41o- (adenoviral transduction)
Description: The YFP halide influx assay measures the functionality of the cystic fibrosis Transmembrane Conductance regulator (CFTR) channels in the cystic fibrosis bronchial epithelium cell line CFBE41o-. The assay is used to evaluate the capacity of compounds to increase the open probability of existing CFTR channels in the membrane. It makes use of the observation that the yellow fluorescent protein (YFP) variant YFP H148Q, I152L has its fluorescence substantially quenched by halide ions like Cl— and I—. (Galietta, Haggie, & Verkman, 2001) (Nagai, et al., 2002)
For this purpose, CFBE41o-cells are seeded in 384 well plates (3000 CFBE cells/well). One day after seeding, the CFBE cells are transduced with adenoviral vectors that direct the expression of the CFTR ΔF508 mutant and of the YFP reporter. Cells are incubated at 27° C., 5% CO2 for 24 hours so as to allow for the proper folding and migration to the membrane of the CFTR channel or treated with a CFTR modulator during 24 h at 37° C.
as §1, with “I— induced” for “I^−-induced”, “recorded […]” for “recorded”, “I—” for “I^−”, “2 min on an FDSS/μCell (Hamamatsu).” for “7 seconds.”, “36” for “7”

T2 sequence (P13569 with tags, fused parts or gaps DEL508-508): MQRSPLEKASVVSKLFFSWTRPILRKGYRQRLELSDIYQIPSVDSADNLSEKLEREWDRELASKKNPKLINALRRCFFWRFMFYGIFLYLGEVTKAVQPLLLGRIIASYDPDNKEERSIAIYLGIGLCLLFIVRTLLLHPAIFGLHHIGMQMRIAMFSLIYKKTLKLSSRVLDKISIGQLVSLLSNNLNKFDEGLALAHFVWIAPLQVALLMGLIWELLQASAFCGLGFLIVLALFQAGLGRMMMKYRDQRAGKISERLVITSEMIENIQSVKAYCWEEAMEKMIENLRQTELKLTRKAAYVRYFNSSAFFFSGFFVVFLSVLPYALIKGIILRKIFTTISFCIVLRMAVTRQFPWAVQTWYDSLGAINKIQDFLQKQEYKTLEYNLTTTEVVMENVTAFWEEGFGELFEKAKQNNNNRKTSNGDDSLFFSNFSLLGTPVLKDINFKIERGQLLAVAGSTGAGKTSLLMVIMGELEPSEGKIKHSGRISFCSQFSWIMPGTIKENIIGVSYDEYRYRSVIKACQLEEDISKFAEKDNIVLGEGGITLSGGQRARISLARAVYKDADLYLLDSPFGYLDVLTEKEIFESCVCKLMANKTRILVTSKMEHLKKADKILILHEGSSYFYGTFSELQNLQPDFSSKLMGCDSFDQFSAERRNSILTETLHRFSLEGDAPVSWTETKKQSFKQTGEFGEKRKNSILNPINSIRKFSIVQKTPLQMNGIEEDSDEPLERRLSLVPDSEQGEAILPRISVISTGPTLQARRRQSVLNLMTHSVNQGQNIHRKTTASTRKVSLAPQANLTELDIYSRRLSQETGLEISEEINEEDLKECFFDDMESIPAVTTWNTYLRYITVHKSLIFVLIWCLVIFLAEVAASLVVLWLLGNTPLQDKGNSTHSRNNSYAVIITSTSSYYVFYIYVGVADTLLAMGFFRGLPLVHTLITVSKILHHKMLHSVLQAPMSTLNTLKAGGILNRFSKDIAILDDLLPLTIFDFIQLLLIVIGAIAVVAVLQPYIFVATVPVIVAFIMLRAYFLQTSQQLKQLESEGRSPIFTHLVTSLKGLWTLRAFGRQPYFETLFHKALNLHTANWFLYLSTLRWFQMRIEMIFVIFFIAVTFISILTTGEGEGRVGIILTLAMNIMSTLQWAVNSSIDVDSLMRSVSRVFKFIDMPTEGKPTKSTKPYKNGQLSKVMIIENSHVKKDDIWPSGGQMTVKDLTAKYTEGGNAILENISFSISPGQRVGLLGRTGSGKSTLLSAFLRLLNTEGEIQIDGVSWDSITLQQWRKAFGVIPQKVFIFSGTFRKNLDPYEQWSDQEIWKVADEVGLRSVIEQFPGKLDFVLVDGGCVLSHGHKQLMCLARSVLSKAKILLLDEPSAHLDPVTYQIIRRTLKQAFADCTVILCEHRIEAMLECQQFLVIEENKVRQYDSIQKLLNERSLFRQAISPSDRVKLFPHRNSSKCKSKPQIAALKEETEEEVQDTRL
T1 sequence (P13569 whole entry G551D): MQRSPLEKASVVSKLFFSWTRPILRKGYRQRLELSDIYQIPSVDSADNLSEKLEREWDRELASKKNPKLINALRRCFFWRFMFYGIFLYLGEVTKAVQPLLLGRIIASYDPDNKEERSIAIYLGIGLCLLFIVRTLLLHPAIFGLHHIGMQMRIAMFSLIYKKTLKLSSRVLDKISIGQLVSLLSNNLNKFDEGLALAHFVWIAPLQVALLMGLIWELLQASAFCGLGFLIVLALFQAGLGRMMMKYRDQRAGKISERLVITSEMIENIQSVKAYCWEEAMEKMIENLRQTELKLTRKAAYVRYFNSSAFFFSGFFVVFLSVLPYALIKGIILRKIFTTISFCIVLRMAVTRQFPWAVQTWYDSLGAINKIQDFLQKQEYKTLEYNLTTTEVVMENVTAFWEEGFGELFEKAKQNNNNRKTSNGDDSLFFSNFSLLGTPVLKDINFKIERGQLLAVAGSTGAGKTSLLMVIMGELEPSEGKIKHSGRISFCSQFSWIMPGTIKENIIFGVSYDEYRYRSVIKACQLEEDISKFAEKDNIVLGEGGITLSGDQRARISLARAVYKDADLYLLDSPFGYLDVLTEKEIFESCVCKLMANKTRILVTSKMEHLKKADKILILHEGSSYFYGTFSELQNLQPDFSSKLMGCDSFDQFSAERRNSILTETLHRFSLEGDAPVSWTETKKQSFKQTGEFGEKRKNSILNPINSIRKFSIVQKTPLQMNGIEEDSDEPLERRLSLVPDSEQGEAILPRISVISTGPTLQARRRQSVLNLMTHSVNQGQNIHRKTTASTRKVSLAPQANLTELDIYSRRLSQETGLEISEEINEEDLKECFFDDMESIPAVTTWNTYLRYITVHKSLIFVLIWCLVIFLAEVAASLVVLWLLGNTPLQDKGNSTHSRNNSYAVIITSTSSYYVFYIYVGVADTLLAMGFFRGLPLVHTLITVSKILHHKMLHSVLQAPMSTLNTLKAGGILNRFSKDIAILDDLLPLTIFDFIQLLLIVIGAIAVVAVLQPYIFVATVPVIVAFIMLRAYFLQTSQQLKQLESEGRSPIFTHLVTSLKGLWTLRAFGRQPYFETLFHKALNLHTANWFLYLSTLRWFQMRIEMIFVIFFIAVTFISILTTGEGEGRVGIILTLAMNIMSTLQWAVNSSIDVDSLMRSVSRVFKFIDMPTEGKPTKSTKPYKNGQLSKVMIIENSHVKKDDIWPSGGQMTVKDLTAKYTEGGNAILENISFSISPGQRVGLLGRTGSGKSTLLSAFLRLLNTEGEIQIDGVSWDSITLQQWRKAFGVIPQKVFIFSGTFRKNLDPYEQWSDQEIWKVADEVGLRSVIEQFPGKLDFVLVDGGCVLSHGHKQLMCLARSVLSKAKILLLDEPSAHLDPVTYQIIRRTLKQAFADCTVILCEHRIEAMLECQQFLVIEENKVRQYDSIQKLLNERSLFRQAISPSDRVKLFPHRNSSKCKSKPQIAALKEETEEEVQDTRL

Row | Molecule | EC50 (CFTR G551D mutant) [nM] | EC50 (CFTR G551D mutant; class symbol) [nM] | EC50 (CFTR ΔF508 mutant) [nM]
1 | 2-[[(2S)-2-hydroxy-3-methyl- butanoyl]amino]-5-[4- (trifluoromethyl)phenyl] sulfonyl-thiophene-3- carboxamide [Compound 366] | 458 | 100 to 500 | 
2 | 5-(4-chlorophenyl)sulfonyl-2- [[(2S)-2-hydroxy-3- methyl-butanoyl]amino] thiophene-3-carboxamide [Compound 367] | 794 | 500 to 1000 | 
3 | 5-(4-fluoro-2-(methoxymethyl) phenylsulfonyl)-2-(2-hydroxy- 2-methylpropanamido) thiophene-3-carboxamide [Compound 300] | 1760 | > 1000 | 
4 | 5-[[5-bromo-6- (trifluoromethyl)-3-pyridyl] sulfonyl]-2-[(2-hydroxy-2- methyl-propanoyl)amino] thiophene-3-carboxamide [Compound 441] |  | > 1000 | 
5 | CC(O)C(=O)Nc1sc(S(=O)(=O)c2ccc(Cl)cc2)cc1C(N)=O (single isomer, unassigned; enantiomer 1) [Compound 347] | 1390 |  | 19.1
6 | C[C@H](O)C(=O)Nc1sc(S(=O)(=O)c2ccc(F)cc2C(F)(F)F)cc1C(N)=O (single isomer, unassigned; enantiomer 1) [Compound 348] | 2550 |  | 16.4
7 | CC(C)C(O)C(=O)Nc1sc(S(=O)(=O)c2ccc(F)cc2)cc1C(N)=O (single isomer, unassigned; enantiomer 1) [Compound 352] | > 1340 | > 1000 | 12.2
8 | CC(O)C(=O)Nc1sc(S(=O)(=O)c2ccc(F)cc2Cl)cc1C(N)=O (single isomer, unassigned; enantiomer 1) [Compound 353] | 1720 |  | 10.8
9 | CC(O)C(=O)Nc1sc(S(=O)(=O)c2c(Cl)cc(F)cc2Cl)cc1C(N)=O (single isomer, unassigned; enantiomer 1) [Compound 354] | 1260 |  | 
10 | CCc1ccccc1S(=O)(=O)c1cc(C(N)=O)c(NC(=O)C(C)O)s1 (stereo not drawn) [Compound 312, 5-(2-Ethyl-benzenesulfonyl)-2-(2-hydroxy-propionylamino)-thiophene-3-carboxylic acid amide] | 1820 |  | 10.5
11 | CC(O)C(=O)Nc1sc(S(=O)(=O)c2c(F)cccc2F)cc1C(N)=O (stereo not drawn) [Compound 313, 5-(2,6-Difluoro-benzenesulfonyl)-2-(2-hydroxy-propionylamino)-thiophene-3-carboxylic acid amide] | 2930 |  | 38.3
12 | C[C@H](O)C(=O)Nc1sc(S(=O)(=O)c2c(Cl)cccc2Cl)cc1C(N)=O [Compound 314, 5-(2,6-Dichloro-benzenesulfonyl)-2-((S)-2-hydroxy-propionylamino)-thiophene-3-carboxylic acid amide] | 458 |  | 7.5
13 | CC(C)Oc1ccc(S(=O)(=O)c2cc(C(N)=O)c(NC(=O)C(C)(C)O)s2)c(F)c1 [Compound 315, 5-(2-Fluoro-4-isopropoxy-benzenesulfonyl)-2-(2-hydroxy-2-methyl-propionylamino)-thiophene-3-carboxylic acid amide] | 828 |  | 42.4
14 | Cc1ccc(S(=O)(=O)c2cc(C(N)=O)c(NC(=O)C(C)(C)O)s2)cc1 [Compound 316, 2-(2-Hydroxy-2-methyl-propionylamino)-5-(toluene-4-sulfonyl)-thiophene-3-carboxylic acid amide] | 1160 |  | 31.1
15 | CC(C)(O)C(=O)Nc1sc(S(=O)(=O)c2ncccc2Cl)cc1C(N)=O [Compound 317, 5-(3-Chloro-pyridine-2-sulfonyl)-2-(2-hydroxy-2-methyl-propionylamino)-thiophene-3-carboxylic acid amide] | 3330 |  | 241
16 | CC(O)C(=O)Nc1sc(S(=O)(=O)c2ccc(OC(F)(F)F)cc2)cc1C(N)=O (stereo not drawn) [Compound 318, 2-(2-Hydroxy-propionylamino)-5-(4-trifluoromethoxy-benzenesulfonyl)-thiophene-3-carboxylic acid amide] | 716 |  | 20.2
17 | NC(=O)c1cc(S(=O)(=O)c2ccccc2OC(F)(F)F)sc1NC(=O)CO [Compound 319, 2-(2-Hydroxy-acetylamino)-5-(2-trifluoromethoxy-benzensulfonyl)-thiophene-3-carboxylic acid amide] | 377 |  | 8.2
18 | CC(O)C(=O)Nc1sc(S(=O)(=O)c2ccccc2Cl)cc1C(N)=O (stereo not drawn) [Compound 321, 5-(2-Chloro-benzenesulfonyl)-2-(2-hydroxy-propionylamino)-thiophene-3-carboxylic acid amide] | 1930 |  | 12.3
19 | CC(C)Oc1ccc(S(=O)(=O)c2cc(C(N)=O)c(NC(=O)C(C)(C)O)s2)c(Cl)c1 [Compound 322, 5-(2-Chloro-4-isopropoxy-benzenesulfonyl)-2-(2-hydroxy-2-methyl-propionylamino)-thiophene-3-carboxylic acid amide] | 919 |  | 41.1
20 | CC(C)Oc1ccc(S(=O)(=O)c2cc(C(N)=O)c(NC(=O)C(C)(C)O)s2)c(C(F)(F)F)c1 [Compound 324, 2-(2-Hydroxy-2-methyl-propionylamino)-5-(4-isopropoxy-2-trifluoromethyl-benzenesulfonyl)-thiophene-3-carboxylic acid amide] | 3160 |  | 84.2
21 | Cc1ncccc1S(=O)(=O)c1cc(C(N)=O)c(NC(=O)C(C)O)s1 (stereo not drawn) [Compound 326, 2-(2-hydroxypropanoylamino)-5-[(2-methyl-3-pyridyl)sulfonyl] thiophene-3-carboxamide] |  | > 1000 | 1060
22 | C[C@@H](O)C(=O)Nc1sc(S(=O)(=O)c2ccc(F)cc2)cc1C(N)=O [Compound 327, 5-(4-fluorophenyl) sulfonyl-2-[[(2R)-2-hydroxypropanoyl]amino] thiophene-3-carboxamide] | 3330 |  | 134
23 | CC(O)C(=O)Nc1sc(S(=O)(=O)c2ccc(OC(F)(F)F)cc2Cl)cc1C(N)=O (stereo not drawn) [Compound 328, 5-[2-chloro-4-(trifluoromethoxy)phenyl] sulfonyl-2-(2-hydroxypropanoylamino) thiophene-3-carboxamide] | 427 |  | 25.8
24 | CC(C)(O)C(=O)Nc1sc(S(=O)(=O)c2cccc3c2OC(F)(F)O3)cc1C(N)=O [Compound 330, 5-[(2,2-difluoro-1,3-benzodioxol-4-yl)sulfonyl]-2-[(2-hydroxy-2-methyl-propanoyl)amino] thiophene-3-carboxamide] | 62.2 |  | 5.3
25 | C[C@@H](O)C(=O)Nc1sc(S(=O)(=O)c2ccc(OC(F)(F)F)cc2)cc1C(N)=O [Compound 332, 2-[[(2R)-2-hydroxypropanoyl]amino]-5-[4-(trifluoromethoxy)phenyl] sulfonyl-thiophene-3-carboxamide] | 525 |  | 22.8
26 | CC(O)C(=O)Nc1sc(S(=O)(=O)c2cc(F)ccc2C(F)(F)F)cc1C(N)=O (stereo not drawn) [Compound 335, 5-[5-fluoro-2-(trifluoromethyl)phenyl] sulfonyl-2-(2-hydroxypropanoylamino) thiophene-3-carboxamide] | 107 |  | 5.7
27 | C[C@H](O)C(=O)Nc1sc(S(=O)(=O)c2ccc(OC(F)(F)F)cc2F)cc1C(N)=O [Compound 444, 5-[2-fluoro-4-(trifluoromethoxy)phenyl] sulfonyl-2-[[(2S)-2-hydroxypropanoyl]amino] thiophene-3-carboxamide] |  |  | 19.6
28 | C[C@H](O)C(=O)Nc1sc(S(=O)(=O)c2ccc(C(F)(F)F)cc2F)cc1C(N)=O [Compound 445, 5-[2-fluoro-4-(trifluoromethyl)phenyl] sulfonyl-2-[[(2S)-2-hydroxypropanoyl]amino] thiophene-3-carboxamide] |  |  | 19.6
29 | CC(C)(CO)C(=O)Nc1sc(S(=O)(=O)c2ccc(OC(F)(F)F)cc2)cc1C(N)=O [Compound 446, 2-[(3-hydroxy-2,2-dimethyl-propanoyl)amino]-5-[4-(trifluoromethoxy)phenyl] sulfonyl-thiophene-3-carboxamide] |  |  | 41.3
